The numbers were not newly measured in patent US20200061109A1, “ZINC CHLORIDE HYDROXIDE HAVING EXCELLENT ZINC ION SUSTAINED-RELEASABILITY AND PRODUCTION METHOD THEREFOR” (JFE MINERAL COMPANY, LTD., priority 2016, published 2020), which cites them from elsewhere.

The test system of one series is skin. The conditions noted are these: in vivo.

Regarding `[Zn+2]` [Zn^2+ ions], the “concentration at which no toxicity is shown against fibroblasts” value in the series on fibroblasts was “no more than 500 μmol/L”. The “level that increases inflammatory cell infiltration of skin and significantly delays re-epithelialization” value in the series on skin is reported as “not less than 15 mmol/L”.
